# Measurements from publication PMC10320002, “In vitro antiproliferative, anti-inflammatory effects and molecular docking studies of natural compounds isolated from Sarcocephalus pobeguinii (Hua ex Pobég)” (Frontiers in Pharmacology, 2023).
# Several values for one entry are separate records, joined by “and”; a condition that tells them apart may be missing. Identical values can stand only once. Counter-ions that a name gives are not always drawn. Like-named read-outs stand apart in the source and are kept apart here.
# What was measured:
# A549 cells = test: MTT antiproliferation assay, A549; format: cell-based, human; conditions: for IC50: Homo sapiens, A549, 48 h, MTT
# Protocol: (§1) Cancerous cell lines (MCF-7: human breast adenocarcinoma cells; HepG2: human hepatocellular carcinoma cells; Caco-2: human epithelial colorectal adenocarcinoma cells; A549: human epithelial lung adenocarcinoma cells), obtained from the American Type Culture Collection (ATCC) (Rockville, MD, United States of America), were cultured in Dulbecco’s Modified Eagle’s Medium (DMEM) high glucose (4.5 g/L) containing L-glutamine (4 mM) and sodium-pyruvate (Hyclone™) supplemented with 10% (v/v) fetal bovine serum (FBS) (Capricorn Scientific GmbH, South America), and incubated at 37°C with 5% CO2 in a humidified environment. African green monkey (Vero) kidney cells (also obtained from ATCC), a non-cancerous cell line, were grown in DMEM high glucose (4.5 g/L) containing L-glutamine (Lonza, Belgium) and supplemented with 5% FBS (Capricorn Scientific GmbH, South America) and 1% gentamicin (Virbac, RSA) in the same environment as cancer cells. The RAW 264.7 murine macrophage cells (obtained from ATCC) were cultured in DMEM high glucose (4.5 g/L) containing L-glutamine (Lonza, Belgium), supplemented with 10% FBS (Capricorn Scientific GmbH, South America) and 1% penicillin/streptomycin/fungizone (PSF) solution, and kept at 37°C in a 5% CO2 humidified environment.
# (§2) The cancerous and non-cancerous cells were seeded at a density of 10^4 cells per well in 96-well microtiter plates, and they were incubated overnight at 37°C with 5% CO2 in a 5% CO2 humidified environment in order to allow the attachment of cells at the bottom of the plates. Then, the cells were exposed to increasing concentrations of compounds (100, 50, 25, 10 and 5 μg/mL) dissolved in dimethyl sulfoxide (DMSO) and further diluted in fresh culture medium. In this assay, the final concentration of DMSO in the culture medium was 0.5% used as negative control while doxorubicin hydrochloride (Pfizer, United States of America) was used as a positive control. The culture plates were incubated for 48 h at 37°C in a 5% CO2 humidified environment, after which the culture medium was discarded, and replaced by 200 µL of fresh culture medium with 30 µL of 3-(4,5-dimethylthiazol-2-yl)-2,5-diphenyl-2H-tetrazolium bromide (MTT) (5 mg/mL) dissolved in phosphate buffered saline ([Mosmann, 1983]). After 4 h of incubation, the medium was gently removed, and the formazan crystals were solubilized in 50 µL of DMSO. The absorbance was measured at 570 nm after shaking for 1 min on a microplate reader (Synergy Multi-Mode Reader, BioTek, Winooski, United States of America).
# (§3) The cell viability rate was determined at each concentration of the compound as a percentage of cells treated with DMSO at 0.5% used as negative control. […] The selectivity index (Supporting Material) values were calculated for each compound by dividing the IC50 of non-cancerous cells by the IC50 of cancerous cells in the same units ([Mfotie Njoya et al., 2018]; [Mfotie Njoya et al., 2020]).
# HepG2 cells = test: MTT antiproliferation assay, HepG2; format: cell-based, human; conditions: for IC50: Homo sapiens, HepG2, 48 h, MTT; for SI values HepG2: IC50 of non-cancerous Vero cells divided by IC50 of HepG2
# Protocol: as §1, §2, §3
# [1] = tested on: NO production in LPS-stimulated RAW 264.7 cells; test: Nitric oxide production inhibitory assay (Griess) in LPS-stimulated RAW 264.7 cells; format: cell-based, murine; conditions: Mus musculus, RAW264.7; LPS (2 μg/mL), 24 h
# Protocol: as §1
# Nitric oxide (NO) production was evaluated in lipopolysaccharide (LPS)-stimulated RAW 264.7 cells by measuring the influence of tested compounds on the accumulation of nitrite, an indicator of NO in the cell supernatant, which can be detected with Griess reagent (Merck, Darmstadt, Germany). Briefly, the RAW 264.7 cells at their exponential growth phase were seeded at a density of 2×10^4 cells per well in 96 well-microtiter plates, and they were incubated overnight at 37°C in a 5% CO2 humidified environment to allow attachment. […] Then, culture medium containing LPS (2 μg/mL) was added to each well and further incubated for 24 h at 37°C in a 5% CO2 humidified environment. Thereafter, 100 μL of cell supernatant from each well were transferred into a new 96-well microtiter plate and an equal volume of Griess reagent was added according to protocol described by the manufacturer. The microtiter plate was incubated for 10 min in the dark at room temperature, and the absorbance of the mixture was measured at 550 nm on a microplate reader (Synergy Multi-Mode Reader, BioTek, Winooski, United States of America). The quantity of nitrite was determined from a sodium nitrite standard curve, and the percentage of NO production was calculated based on the ability of each tested sample to inhibit nitric oxide production by LPS-stimulated RAW 264.7 cells compared to the control (cells treated with LPS without samples which was considered as 100% NO production). Additionally, the cell viability of treated cells was determined by using the MTT assay as previously described ([Mosmann, 1983]).
# Vero cells = test: MTT antiproliferation assay, non-cancerous Vero cells; format: cell-based, African green monkey; conditions: Chlorocebus sabaeus, Vero; 48 h, MTT
# Protocol: as §1, §2, §3
# MCF-7 cells = test: MTT antiproliferation assay, MCF-7; format: cell-based, human; conditions: for IC50: Homo sapiens, MCF7, 48 h, MTT
# Protocol: as §1, §2, §3
# 15-LOX = biological target: T1, 15-LOX (Glycine max, UniProt P08170); test: Soybean 15-LOX inhibitory assay (FOX); format: biochemical; conditions: linoleic acid 140 μM, pH 7.4, 25°C
# T1 construct: purchased Merck, Darmstadt, Germany
# T1 sequence (P08170 1-839): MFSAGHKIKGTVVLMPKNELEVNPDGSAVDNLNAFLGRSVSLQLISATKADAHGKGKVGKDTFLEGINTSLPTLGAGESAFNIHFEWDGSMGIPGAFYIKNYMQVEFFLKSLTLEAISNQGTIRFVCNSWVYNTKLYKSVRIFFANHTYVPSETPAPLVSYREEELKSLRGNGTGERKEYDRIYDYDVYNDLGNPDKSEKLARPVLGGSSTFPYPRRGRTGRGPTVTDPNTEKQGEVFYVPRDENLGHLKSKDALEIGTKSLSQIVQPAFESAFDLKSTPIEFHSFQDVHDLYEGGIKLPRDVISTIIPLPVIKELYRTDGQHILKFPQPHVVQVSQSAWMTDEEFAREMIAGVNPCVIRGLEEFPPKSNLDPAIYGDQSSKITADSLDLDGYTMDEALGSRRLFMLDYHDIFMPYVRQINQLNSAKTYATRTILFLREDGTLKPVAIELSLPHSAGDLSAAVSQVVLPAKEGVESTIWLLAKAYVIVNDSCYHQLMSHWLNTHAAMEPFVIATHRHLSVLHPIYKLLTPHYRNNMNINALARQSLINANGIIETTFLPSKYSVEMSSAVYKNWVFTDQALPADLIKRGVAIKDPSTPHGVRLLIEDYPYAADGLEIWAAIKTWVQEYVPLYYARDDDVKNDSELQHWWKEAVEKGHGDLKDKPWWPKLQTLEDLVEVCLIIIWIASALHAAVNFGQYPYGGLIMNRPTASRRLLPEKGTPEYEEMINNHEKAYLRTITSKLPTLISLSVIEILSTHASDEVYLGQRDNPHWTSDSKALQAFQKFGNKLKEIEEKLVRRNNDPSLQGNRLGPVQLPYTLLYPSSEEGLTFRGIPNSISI
# Protocol: This assay is based on the formation of the Fe^3+/xylenol orange (FOX) complex with maximal absorption at 560 nm ([Pinto et al., 2007]). Forty microliters of 15-LOX (final concentration: 200 UI/mL) from Glycine max (Merck, Darmstadt, Germany) was incubated with 20 µL of tested samples (100, 50, 25, 10, and 5 μg/mL) at 25°C for 5 min, with DMSO at 10% (v/v) being used as negative control. Thereafter, 40 µL of linoleic acid (final concentration, 140 μM) prepared in Tris-HCl buffer (50 mM, pH 7.4) was added, and the plates were further incubated at 25°C for 20 min in the dark. The assay was terminated by adding 100 μL of FOX reagent [sulfuric acid (30 mM), xylenol orange (100 μM), ferrous II) sulfate (100 μM), dissolved in methanol/water (9:1)], followed by the incubation of the plates at 25°C for 30 min in the dark. Finally, the absorbance was measured at 560 nm on a microplate reader (Epoch, BioTek, Winooski, United States of America). The blanks were made in the same way as tested samples except that the substrate was added after the FOX reagent. The 15-LOX inhibitory activity was calculated by using the following formula: 15−LOX inhibitory activity %=100−Abs sample−Abs blank/Abs negative control−Abs blank×100 (1)
# Caco-2 cells = test: MTT antiproliferation assay, Caco-2; format: cell-based, human; conditions: for IC50: Homo sapiens, Caco-2, 48 h, MTT
# Protocol: as §1, §2, §3
# [2] = read-out: IC50 values 15-LOX (converted)
Compound,IC50 (A549 cells),IC50 (HepG2 cells),IC50 [1],IC50 (MCF-7 cells),IC50 (15-LOX; [2]),IC50 (Caco-2 cells),IC50 (Vero cells),IC50 (15-LOX; IC50 values 15-LOX),SI values A549 (A549 cells; IC50 of non-cancerous Vero cells divided by IC50 of A549),SI values HepG2 (HepG2 cells),SI values MCF7 (MCF-7 cells; IC50 of non-cancerous Vero cells divided by IC50 of MCF-7),SI values Caco-2 (Caco-2 cells; IC50 of non-cancerous Vero cells divided by IC50 of Caco-2)
"CC1(C)CC[C@]2(C)CC=C3[C@]4(C)CC[C@H]5C(C)(C)[C@@H](O)CC[C@]5(C)[C@H]4CC[C@@]3(C)[C@@H]2C1 [Compound 4, taraxerol]",177 µM and 75.6 µg/mL,54.2 µg/mL and 127 µM,> 100 µg/mL and > 234 µM,81.3 µg/mL and 191 µM,> 234 µM,> 100 µg/mL and > 234 µM,> 100 µg/mL and > 234 µM,–,–,–,–,–
"C[C@H]1[C@H](C)CC[C@]2(C(=O)O)CC[C@]3(C(=O)O)C(=CC[C@@H]4[C@@]5(C)CC[C@H](O)C(C)(C)[C@@H]5CC[C@]43C)[C@H]12 [Compound 8, quinovic acid]",204 µM and 99.5 µg/mL,100 µg/mL and 205 µM,86 µg/mL and 177 µM,98 µg/mL and 201 µM,–,81.6 µg/mL and 168 µM,> 100 µg/mL and > 205 µM,71.9 µM,–,–,–,–
"COc1cccc2c1C(=O)c1c(O)c3c(c(O)c1C2=O)C[C@@](O)(C(=O)CO)C[C@@H]3O[C@H]1C[C@H](N)[C@H](O)[C@H](C)O1 [Doxorubicin, doxorubicin hydrochloride, reference compound]",0.71 ± 0.05 µM,0.56 ± 0.05 µM,–,1.09 ± 0.06 µM,–,4.97 ± 0.74 µM,4.85 ± 0.51 µM,–,6.83,8.66,4.45,0.98
"C[C@@H]1CC[C@]2(C(=O)O)CC[C@]3(C(=O)O)C(=CCC4[C@@]5(C)CC[C@H](O)C(CO)(CO)C5CC[C@]43C)C2[C@H]1C (stereo partly shown) [Compound 3, chletric acid]",> 187 µM and > 100 µg/mL,80 µg/mL and 150 µM,> 100 µg/mL and > 187 µM,> 100 µg/mL and > 187 µM,42.4 µM and 41.2 µM,> 100 µg/mL and > 187 µM,> 100 µg/mL and > 187 µM,–,–,–,–,–
"C[C@H]1[C@H](C)CC[C@]2(C)CC[C@]3(C)C(=CC[C@@H]4[C@@]5(C)CC[C@H](O)C(C)(C)[C@@H]5CC[C@]43C)[C@H]12 [Compound 5, α-amyrin (3β-hydroxy-urs-12-en-3-ol)]",217 µM and 92.7 µg/mL,84.5 µg/mL and 198 µM,> 100 µg/mL and > 234 µM,82.8 µg/mL and 194 µM,> 234 µM,> 100 µg/mL and > 234 µM,> 100 µg/mL and > 234 µM,–,–,–,–,–

# More lines, main results first:
IC50 (A549 cells),IC50 (HepG2 cells),IC50 [1],IC50 (MCF-7 cells),IC50 (15-LOX; [2]),IC50 (Caco-2 cells),Compound,IC50 (Vero cells),IC50 (15-LOX; IC50 values 15-LOX),SI values A549 (A549 cells; IC50 of non-cancerous Vero cells divided by IC50 of A549),SI values HepG2 (HepG2 cells),SI values MCF7 (MCF-7 cells; IC50 of non-cancerous Vero cells divided by IC50 of MCF-7),SI values Caco-2 (Caco-2 cells; IC50 of non-cancerous Vero cells divided by IC50 of Caco-2)
–,–,12.8 µg/mL and 42.5 µM,–,–,–,"O=c1c(O)c(-c2ccc(O)c(O)c2)oc2cc(O)cc(O)c12 [Quercetin, quercetin, reference compound]",–,–,–,–,–,–
> 226 µM and > 100 µg/mL,73.9 µg/mL and 167 µM,95.6 µg/mL and 216 µM,> 100 µg/mL and > 226 µM,147 µM,> 100 µg/mL and > 226 µM,"CC1(C)CC[C@]2(CO)CC[C@]3(C)C(=CC[C@@H]4[C@@]5(C)CC[C@H](O)C(C)(C)[C@@H]5CC[C@]43C)[C@@H]2C1 [Compound 7, erythrodiol]",84 µg/mL and 190 µM,–,–,1.13,–,–
